Measured values from ChEMBL document CHEMBL3639225, “Perfluorinated cyclopropyl fused 1,3-oxazin-2-amine compounds as beta-secretase inhibitors and methods of use” (2015).

Biological target: Cathepsin D (Homo sapiens, UniProt P07339)
Assay: Fluorescence Resonance Energy Transfer Assay: Recombinant Cat D was expressed in CHO cells. The assay buffer for CathepsinD is 0.05 M citrate pH 3.5, 10% DMSO final, 5 mM CHAPS. The Cat D enzyme (9 nM) is pre-incubated for one hour with inhibitors, typically in about 1 uL of DMSO according to a serial dilution, is added thereto. The assays are effectively started by the addition of different FRET substrates (20 nM for Cat D) and the combination is incubated for one hour. The FRET assay is terminated with by addition of Tris buffer, which raises the pH to neutrality, and the fluorescence is determined. The FRET substrate is a peptide with commercially available fluorophore and quencher, on opposite sides of the BACE cleavage site. The Cat D substrate peptide sequence is based on sequence #1 of Table 1 from Gulnik et al. FEBS Letters v413 p379-384 1997. Proteolytic cleavage of the FRET substrate releases quenching of fluorescence (Cat D excitation 500 nm and emission 580 nm).
Type: cell-based

Cathepsin D, sequence (P07339 65-162 limits assumed): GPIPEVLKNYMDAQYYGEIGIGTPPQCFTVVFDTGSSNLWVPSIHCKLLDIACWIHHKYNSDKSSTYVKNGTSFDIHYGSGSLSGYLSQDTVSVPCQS
Cathepsin D, sequence (P07339 169-412 limits assumed): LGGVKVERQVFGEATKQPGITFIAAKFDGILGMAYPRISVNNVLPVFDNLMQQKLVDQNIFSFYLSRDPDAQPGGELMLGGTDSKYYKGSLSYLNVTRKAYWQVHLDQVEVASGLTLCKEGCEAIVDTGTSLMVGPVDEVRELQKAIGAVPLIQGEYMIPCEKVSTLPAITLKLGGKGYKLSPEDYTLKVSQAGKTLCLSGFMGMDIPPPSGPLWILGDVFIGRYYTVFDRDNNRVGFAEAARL

| IC50 [µM] | SMILES |
| --- | --- |
| 1020 | NC1=N[C@@](c2cc(NC(=O)c3ncc(Br)cn3)ccc2F)(C(F)F)[C@H]2C[C@H]2O1 |
| 533 | NC1=N[C@](CF)(c2cc(NC(=O)c3ncc(Cl)cc3CO)ccc2Cl)[C@H]2C[C@H]2O1 |
| 171 | Cc1cc(NC(=O)c2ccc(Cl)cc2CF)cc([C@@]2(C(F)F)N=C(N)O[C@@H]3C[C@@H]32)c1F |

| SMILES | IC50 [µM] |
| --- | --- |
| NC1=N[C@](CF)(c2cc(NC(=O)c3ccc(Cl)cn3)cc(F)c2F)[C@H]2C[C@H]2O1 | 229 |
